Assay results taken from patent US7179825B2, “Retinoic acid mimetic anilides” (Janssen Pharmaceutica N.V., priority 1997, dated 2007).

Key:
[1] = system: metabolism of retinoic acid in human breast cancer cells; test: Inhibition of retinoic acid (RA) metabolism (Example C.1); assay type: cell-based; conditions: MCF-7 human breast cancer cells, 3H-RA as substrate; concentration needed to reduce the amount of metabolites to 50% of the control
Outline: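 Test compound (in 1% DMSO) added at several concentrations to MCF-7 cell suspensions fed ³H-RA, after RA induction of metabolism one day earlier. Scintillation counting of the separated polar metabolite fraction; IC50 = concentration giving 50% of control metabolite level.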

Ovariectomized rats = test: Vaginal keratinization test on ovariectomized rats (Example C.2); assay type: in vivo; conditions: estradiol undecylate induced keratinization, per os once daily on days 1-3, active dose = 50% of rats show complete suppression
Outline: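 Value is the lowest oral dose (mg/kg) at which half of tested rats show complete suppression of estradiol undecylate-induced vaginal keratinization by histology. Ovariectomized rats received 100 μg/100 g estradiol undecylate s.c., then compound or PEG 200 vehicle p.o. daily for three days; sacrifice one day later.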

| SMILES | IC50 [1] | LAD (lowest active dose) (Ovariectomized rats) |
| --- | --- | --- |
| Cc1ccc(CC(=O)Nc2ccc(C(C(C)C)n3cncn3)cc2)cc1 (stereo not shown) [Compound 133] | 4.56 nM | >5.00 mg/kg |
| CC(C)C(c1ccc(NC(=O)Cc2ccc(O)cc2)cc1)n1cncn1 (stereo not shown) [Compound 134] | 2.98 nM | 5.00 mg/kg |
| CCOc1ccc(CC(=O)Nc2ccc(C(C(C)C)n3cncn3)cc2)cc1 (stereo not shown) [Compound 135] | 1.43 nM | 2.50 mg/kg |
| COc1ccc(CC(=O)Nc2ccc(C(C(C)C)n3cncn3)cc2)cc1OC.O (stereo not shown) [Compound 136] | 4.83 nM | 5.00 mg/kg |
| CC(C)C(c1ccc(NC(=O)Cc2cccc(O)c2)cc1)n1cncn1 (stereo not shown) [Compound 137] | 1.85 nM | >5.00 mg/kg |
| COc1cc(CC(=O)Nc2ccc(C(C(C)C)n3cncn3)cc2)ccc1O (stereo not shown) [Compound 138] | 6.38 nM | >5.00 mg/kg |
| COc1cc(CC(=O)Nc2ccc(C(C(C)C)n3ccnc3)cc2)cc(OC)c1OC (stereo not shown) [Compound 139] | 1.75 nM | 10.00 mg/kg |
| COc1ccc(CC(=O)Nc2ccc(C(C(C)C)n3ccnc3)cc2)cc1OC (stereo not shown) [Compound 140] | 21.5 nM | 5.00 mg/kg |
| CC(C)C(c1ccc(NC(=O)Cc2ccc(Cl)cc2Cl)cc1)n1ccnc1 (stereo not shown) [Compound 141] | 1.31 nM | >10.00 mg/kg |
| COc1cc(CC(=O)Nc2ccc(C(C(C)C)n3ccnc3)cc2)ccc1O (stereo not shown) [Compound 142] | 31.1 nM | 5.00 mg/kg |
| CC(C)C(c1ccc(NC(=O)Cc2ccc(Cl)c(Cl)c2)cc1)n1ccnc1 (stereo not shown) [Compound 143] | 4.08 nM | 10.00 mg/kg |
| CC(C)C(c1ccc(NC(=O)Cc2ccc(N)c(I)c2)cc1)n1ccnc1 (stereo not shown) [Compound 148] | 1.86 nM | >5.00 mg/kg |
| CC(C)C(c1ccc(NC(=O)Cc2ccc([N+](=O)[O-])cc2)cc1)n1ccnc1 (stereo not shown) [Compound 151] | 2.11 nM | 5.00 mg/kg |
| CC(C)C(c1ccc(NC(=O)Cc2ccc(N)cc2)cc1)n1ccnc1 (stereo not shown) [Compound 152] | 5.18 nM | >5.00 mg/kg |
| C/C(=C\c1ccncc1)C(=O)Nc1ccc(C(C(C)C)n2cncn2)cc1 (stereo not shown) [Compound 158] | > 100 nM | >10.00 mg/kg |
| C/C(=C\c1ccc(C(F)(F)F)cc1)C(=O)Nc1ccc(C(C(C)C)n2cncn2)cc1 (stereo not shown) [Compound 159] | > 100 nM | >10.00 mg/kg |
| CC(C)C(c1ccc(NC(=O)C2Oc3ccccc3O2)cc1)n1cncn1 (stereo not shown) [Compound 161] | 1.87 nM | >2.50 mg/kg |
| CC(C)C(c1ccc(NC(=O)CC2COc3ccccc3O2)cc1)n1cncn1 (stereo not shown) [Compound 162] | 2.88 nM | >5.00 mg/kg |
| CC(C)C(c1ccc(NC(=O)C2COc3ccccc3O2)cc1)n1ccnc1 (stereo not shown) [Compound 175] | 4.83 nM | 10.00 mg/kg |
| CC(C)C(c1ccc(NC(=O)c2cccc3ccccc23)cc1)n1ccnc1 (stereo not shown) [Compound 182] | 13.1 nM | 10.00 mg/kg |
| CCOC(=O)Nc1ccc(C(C(C)C)n2ccnc2)cc1 (stereo not shown) [Compound 183] | 7.4 nM | >10.00 mg/kg |
| CC(C)C(c1ccc(NC(=O)c2cccs2)cc1)n1ccnc1 (stereo not shown) [Compound 187] | 18.8 nM | >10.00 mg/kg |
| CC(C)C(c1ccc(NC(=O)C2(c3ccccc3)CC2)cc1)n1ccnc1 (stereo not shown) [Compound 190] | > 100 nM | >10.00 mg/kg |
| CC(C)C(c1ccc(NC(=O)C2(c3ccccc3)CCCC2)cc1)n1ccnc1 (stereo not shown) [Compound 191] | > 100 nM | >10.00 mg/kg |
| CC(C)C(c1ccc(NC(=O)c2cccn2C)cc1)n1ccnc1 (stereo not shown) [Compound 195] | 35.1 nM | >10.00 mg/kg |
| CC(C)C(c1ccc(NC(=O)C2CC2)cc1)n1ccnc1 (stereo not shown) [Compound 199] | 7.82 nM | >10.00 mg/kg |
